Test results as given in patent US9688651B2, “Geranyl geranyl acetone analogs and uses thereof” (NYKEN Holding B.V., priority 2012, dated 2017).

Columns and labels:
HSP25 = HSP25 mRNA (qPCR) in HL-1 cardiomyocytes after mild heat shock; assay type: cell-based, mouse; parameters: key: 0 = no induction HSP levels; + = 2-10-fold induction; ++ = 10-30-fold induction; +++ = > 30-fold induction; settings: then compound 10 μM for 6 hours
Experimental: (§1) HL-1 cardiomyocytes were subjected to a mild heat shock of 44° C. for 10 minutes. After a recovery of 10 minutes (37 degrees 5% CO2), compounds were added in a final concentration of 10 μM (dissolved in DMSO, final concentration 0.1%). To control myocytes, 0.1% DMSO was added. After six hours the cells were lysed in RIPA buffer and used for Western blotting as described previously.^3, 10 Compounds were also screened for their ability to upregulate HSP gene expression. Hereto, HL-1 cardiomyocytes were first subjected to a mild heat shock which activates the Heat Shock Factor. After the mild heat shock, compound (10 μM) was added to the medium of HL-1 cardiomyocytes for 6 hours, followed by determination of HSP70, HSP25, HSP90 and HSP40 which are targets of the heat shock factor 1 (HSF1) transcription factor. In addition, we determined mRNA levels of the gene encoding the glucose-responsive protein 78 (Grp78) which is HSF1-independent.

HSP27 = HSP27 Western blot in MCF-7 cells; assay type: cell-based, human; settings: MCF-7 lysate, 16-20 hours
Experimental: (§2) MCF-7 breast cancer cells were cultured in DMEM supplemented with 10% FCS. Test compounds were added to the medium in a final concentration of […] for 16-20 hours. Ratio death and living cells was determined by using trypan blue staining of death cells. The cell pellets were lysed in RIPA buffer and used for Western blot analysis.
(§3) Western-blot analysis was performed as described previously^3, 10. Equal amount of protein in SDS-PAGE sample buffer was sonicated before separation on 10% PAA-SDS gels. After transfer to nitrocellulose membranes (Stratagene, The Netherlands), membranes were incubated with primary antibodies against HSP25 (Stressgen, The Netherlands, SPA-801, 1:1000), HSP27 (Stressgen, SPA-800, 1:1000), HSP70 (Stressgen, SPA-810, 1:1000), GAPDH (Affinity Reagents, The Netherlands) or PARP (Santa Cruz, The Netherlands, sc-7150, 1:500). Horseradish peroxidase-conjugated anti-mouse or anti-rabbit (Santa-Cruz Biotechnology, The Netherlands) was used as secondary antibody. Signals were detected by the ECL-detection method (Amersham, The Netherlands) and quantified by densitometry using GeneTools software from Syngene (The Netherlands).

HSP70 [1] = assay: HSP70 Western blot in MCF-7 cells; assay type: cell-based, human; parameters: key: + = P < 0.05; ++ = P < 0.01; +++ = P < 0.001; settings: MCF-7 lysate, 16-20 hours
Experimental: as §2, §3

[2] = tested on: HSP70, HSP25, HSP90 and HSP40; assay: Upregulation of HSP gene expression (HSF1 targets) in HL-1 cardiomyocytes; assay type: cell-based, mouse; settings: HL-1, mild heat shock, 10 μM, 6 hours
Experimental: as §1

PARP = PARP cleavage in MCF-7 cells (Western blot); assay type: cell-based, human; parameters: key to Cell Death MCF-7 cancer cells PARP: 0 = no dead cells; + = P < 0.05; ++ = P < 0.01; +++ = P < 0.001; settings: MCF-7 lysate, Western blot, 16-20 hours
Experimental: as §2, §3
(§4) Since we observed that some compounds aggravate tachypacing-induced contractile dysfunction, we next investigated if these compounds can induce programmed cell death in a human breast cancer cell-line MCF-7. Hereto, MCF-7 cells were incubated for 16 hours with 10 μM of a test compound after which the number of death and living cells was determined. In total 28 compounds were tested for cell death. […] GGA was used as a control as well as non-treated MCF-7 cells. […] The findings indicate that GGA-like compounds which aggravate heart failure can induce programmed cell death in MCF-7 breast cancer cell-line.

[3] = tested on: MCF-7 breast cancer cells; assay: MCF-7 cell death, ratio death/living cells (trypan blue); assay type: cell-based, human; parameters: key to Cell Death MCF-7 cancer cells Death/living 100 μM: 0 = no dead cells; + = P < 0.05; ++ = P < 0.01; +++ = P < 0.001; settings: 100 μM; 16-20 hours; trypan blue
Experimental: MCF-7 breast cancer cells were cultured in DMEM supplemented with 10% FCS. […] Ratio death and living cells was determined by using trypan blue staining of death cells. The cell pellets were lysed in RIPA buffer and used for Western blot analysis.
as §4, with “Hereto, MCF-7 cells were incubated for 16 hours with 10 μM of a test compound after which the number of death and living cells was determined.” left out

[4] = tested on: glucose-responsive protein 78 (Grp78); assay: Grp78 mRNA (qPCR, HSF1-independent) in HL-1 cardiomyocytes; assay type: cell-based, mouse; parameters: key to HSP boosting HL-1 cardiomyocytes mRNA (qPCR) Grp78 Not HSF1: 0 = no induction HSP levels; + = 2-10-fold induction; ++ = 10-30-fold induction; +++ = > 30-fold induction; settings: for upregulation of Grp78 mRNA: HL-1, mild heat shock, 10 μM, 6 hours; for HSP boosting HL-1 cardiomyocytes mRNA (qPCR) Grp78 Not HSF1: mild heat shock, then compound 10 μM for 6 hours
Experimental: as §1

HSP40 = HSP40 mRNA (qPCR) in HL-1 cardiomyocytes after mild heat shock; assay type: cell-based, mouse; settings: then compound 10 μM for 6 hours
Experimental: as §1

HSP70 [5] = assay: HSP70 protein boosting in HL-1 cardiomyocytes after mild heat shock (Western blot); assay type: cell-based, mouse; settings: for induction of mammalian HSP70 protein expression: HL-1, mild heat shock, 10 μM, 6 hours; for HSP boosting HL-1 cardiomyocytes Protein HSP70: mild heat shock 44°C 10 min, then compound 10 μM for 6 hours, Western blot
Experimental: HL-1 atrial myocytes, a cell line derived from adult mouse atria were obtained from Dr. William Claycomb (Louisiana State University, New Orleans, La., USA). The myocytes were maintained in Complete Claycomb Medium (JRH, UK) supplemented with 100 μM norepinephrine stock (consisting of 10 mM norepinephrine (Sigma, The Netherlands) dissolved in 0.3 mM L-ascorbic acid (Sigma)), 4 mM L-glutamine (Gibco, The Netherlands) and 10% FBS (Sigma). The myocytes were cultured in flasks coated with 0.02% gelatin (Sigma), in a 5% CO2 atmosphere at 37° C.
HL-1 cardiomyocytes were subjected to a mild heat shock of 44° C. for 10 minutes. After a recovery of 10 minutes (37 degrees 5% CO2), compounds were added in a final concentration of 10 μM (dissolved in DMSO, final concentration 0.1%). To control myocytes, 0.1% DMSO was added. After six hours the cells were lysed in RIPA buffer and used for Western blotting as described previously.^3, 10
as §3
Compounds were also screened for HSP70 boosting effects. Hereto, HL-1 cardiomyocytes were first subjected to a mild heat shock which activates the Heat Shock Factor. After the mild heat shock, compound (10 μM) was added to the medium of HL-1 cardiomyocytes for 6 hours, followed by determination of the HSP70 amount.

HSP90 = HSP90 mRNA (qPCR) in HL-1 cardiomyocytes after mild heat shock; assay type: cell-based, mouse; settings: then compound 10 μM for 6 hours
Experimental: as §1

HSP70 [6] = assay: HSP70 mRNA (qPCR) in HL-1 cardiomyocytes after mild heat shock; assay type: cell-based, mouse; settings: then compound 10 μM for 6 hours
Experimental: as §1

HSP70 [7] = assay: Hsp70 induction in murine proximal tubule (MPT) cells (Western blot); assay type: cell-based; settings: 40 μM, 5 hours, outperformed positive control GGA
Experimental: Murine proximal tubule (MPT) cells were isolated and cultured as described previously (Borkan et al. Heat stress ameliorates ATP depletion-induced sublethal injury in mouse proximal tubule cells. Am. J. Physiol. 1997; F347-55).
The MPT cells were exposed to 40 μM of compound for 5 hours, after which the cells were harvested in RIPA buffer followed by Western blotting.
For Western-blot analysis, equal amount of protein in SDS-PAGE sample buffer was separated on 10% PAA-SDS gels. After transfer to nitrocellulose membranes (Stratagene, USA), membranes were incubated with primary antibodies against HSP70 (Enzo C92F3A/StressGen SP810) or beta-actin (Sigma A541). Horseradish peroxidase-conjugated anti-mouse or anti-sheep (Jackson ImmunoRes) was used as secondary antibody. Signals were detected by the ECL-detection method (Amersham).

| Structure (SMILES) | HSP boosting HL-1 cardiomyocytes mRNA (qPCR) HSP 25 (HSP25) | Cell Death MCF-7 cancer cells HSP 27 (HSP27) | Cell Death MCF-7 cancer cells HSP 70 (HSP70 [1]) | induction of HSP gene expression [2] | Cell Death MCF-7 cancer cells PARP (PARP) | Cell Death MCF-7 cancer cells Death/living 100 μM [3] | upregulation of Grp78 mRNA [4] | HSP boosting HL-1 cardiomyocytes mRNA (qPCR) Grp78 Not HSF1 [4] | HSP boosting HL-1 cardiomyocytes mRNA (qPCR) HSP 40 (HSP40) | induction of mammalian HSP70 protein expression (HSP70 [5]) | HSP boosting HL-1 cardiomyocytes mRNA (qPCR) HSP 90 (HSP90) | HSP boosting HL-1 cardiomyocytes mRNA (qPCR) HSP 70 (HSP70 [6]) | HSP boosting HL-1 cardiomyocytes Protein HSP70 (HSP70 [5]) | induction of HSP70 expression in renal (MPT) cells (HSP70 [7]) |
| --- | --- | --- | --- | --- | --- | --- | --- | --- | --- | --- | --- | --- | --- | --- |
| CC(=O)CC(=O)CC/C=C(\C)CCC=C(C)C [Compound 28, (E)-8,12-Dimethyltrideca-7,11-Diene-2,4-Dione] | + (+ = 2-10-fold induction) | ++ (++ = P < 0.01) | 0 | strong inducers | 0 | 0 | no upregulation | 0 | + (+ = 2-10-fold induction) | potent inducers | + (+ = 2-10-fold induction) | + (+ = 2-10-fold induction) |  |  |
| CC(C)=CCC/C(C)=C/CNC(=O)CCC(=O)O [Compound 46] | ++ (++ = 10-30-fold induction) |  |  | strong inducers |  |  | no upregulation | 0 | + (+ = 2-10-fold induction) | potent inducers | ++ (++ = 10-30-fold induction) | + (+ = 2-10-fold induction) | ++ (++ = 10-30-fold induction) | strong inducers |
| CC(C)=CCC/C(C)=C/CNS(C)(=O)=O [Compound 51, (E)-N-(3,7-Dimethylocta-2,6-dien-1-yl)methanesulfonamide] | + (+ = 2-10-fold induction) | ++ (++ = P < 0.01) | + (+ = P < 0.05) | strong inducers | 0 | 0 | no upregulation | 0 | + (+ = 2-10-fold induction) | potent inducers | + (+ = 2-10-fold induction) | + (+ = 2-10-fold induction) |  | strong inducers |
| CC(C)=CCC/C(C)=C/CNS(=O)(=O)C(F)(F)F [Compound 52] | + (+ = 2-10-fold induction) |  |  | strong inducers |  |  | no upregulation | 0 | + (+ = 2-10-fold induction) | potent inducers | + (+ = 2-10-fold induction) | + (+ = 2-10-fold induction) |  | strong inducers |
| CC(C)=CCC/C(C)=C/CCc1cc(O)n[nH]1 [Compound 62, (E)-5-(4,8-dimethylnona-3,7-dien-1-yl)-1H-pyrazol-3-ol] | 0 |  |  | strong inducers |  |  | no upregulation | 0 | + (+ = 2-10-fold induction) | potent inducers | + (+ = 2-10-fold induction) | + (+ = 2-10-fold induction) | ++ (++ = 10-30-fold induction) | strong inducers |
